Data from paper PMC11364104, “Discovery of SARS-CoV-2 papain-like protease (PL^pro) inhibitors with efficacy in a murine infection model” (Science Advances, 2024).

Tests used:
Serotonin 3 = molecular target: T1, Serotonin 3 (Homo sapiens, UniProt P46098); assay: CEREP ion channel-binding
T1 construct: purchased Eurofins Cerep

Adenosine A2a = molecular target: T2, Adenosine A2a (Homo sapiens, UniProt P29274); assay: CEREP functional agonism; type: cell-based; settings: 30 µM
T2 construct: purchased Eurofins Cerep

Human Cathepsin S = molecular target: T3, Human Cathepsin S (Homo sapiens, UniProt P25774); assay: biochemical
T3 construct: assay run at Reaction Biology Corporation

Aurora A Kinase = molecular target: T4, Aurora A Kinase (Homo sapiens, UniProt O14965); assay: CEREP kinase inhibition; type: biochemical
T4 construct: purchased Eurofins Cerep

Lck Kinase = molecular target: T5, Lck Kinase (Homo sapiens, UniProt P06239); assay: CEREP kinase inhibition; type: biochemical
T5 construct: purchased Eurofins Cerep

Human Cathepsin D = molecular target: T6, Human Cathepsin D (Homo sapiens, UniProt P07339); assay: biochemical
T6 construct: assay run at Reaction Biology Corporation

[1] = tested on: GABAa (benzodiazepine Site); assay: CEREP ion channel-binding; settings: 30 µM
Human Cathepsin F = molecular target: T7, Human Cathepsin F (Homo sapiens, UniProt Q9UBX1); assay: biochemical
T7 construct: assay run at BPS Bioscience

in vitro [2] = settings: African green monkey, Mean CC50, n=3
in vitro [3] = settings: male, cynomolgus monkey, plasma
[4] = Media binding for in vitro cell systems; type: in vitro ADME
hCoV-OC43_PLpro2 = hCoV-OC43_PLpro2 (Human coronavirus OC43, UniProt P0C6X6); assay: biochemical; design: species or system OC43-CoV
[5] = molecular target: T8, Androgen Receptor (Binding) (Homo sapiens, UniProt P10275); assay: CEREP NHR-binding
T8 construct: purchased Eurofins Cerep

Human Elastase = molecular target: T9, Human Elastase (Homo sapiens, UniProt P08246); assay: biochemical
T9 construct: Reaction Biology Corporation (ran the assay as a service)

[6] = molecular target: T10, Glucocorticoid Receptor (Binding) (Homo sapiens, UniProt P04150); assay: CEREP NHR-binding
T10 construct: purchased Eurofins Cerep

Human Thrombin = molecular target: T11, Human Thrombin (Homo sapiens, UniProt P00734); assay: biochemical
T11 construct: assay run at Reaction Biology Corporation

Acetylcholinesterase = molecular target: T12, Acetylcholinesterase (Homo sapiens, UniProt P22303); assay: CEREP enzyme inhibition; type: biochemical
T12 construct: purchased Eurofins Cerep

Monoamine Oxidase = assay: CEREP enzyme inhibition; type: biochemical; settings: 30 µM
NMDA Receptor (PCP site) = assay: CEREP ion channel-binding; settings: 30 µM
Monkey pharmacokinetics = type: in vivo; settings: plasma, Male Cynomolgus Monkey, 1.0 mg/kg iv, solution, mean n=2
Description: from Vital River (Beijing, China) and were typically 7-9 weeks of age at the time of dosing.
During the pharmacokinetic studies all animals were housed individually. Access to food and water was provided ad libitum (i.e., subjects were dosed in the fed state). In the instances where oral (po) dose was administered in the fed state, with ad libitum access to food and water. Compounds were administered intravenously (iv) via the tail vein (n = 2) dosed as a solution (1 mg/kg, 3 ml/kg) or via oral gavage as a solution (10 mg/kg, 10 ml/kg). Dosing solutions were prepared immediately before dosing. The composition of each dosing vehicle […]
Serial blood samples were collected via the jugular vein cannula at predetermined timepoints after dosing. Animals were monitored for pain or distress throughout the study, with at least daily monitoring during normal husbandry prior to study start. At the completion of the study, animals were euthanized by overdose of inhaled carbon dioxide. Blood samples were collected into tubes containing K2EDTA and stored on ice until centrifugation to obtain plasma, which was stored frozen at - 20 °C or lower.
Dog pharmacokinetic studies were done at Pfizer (Groton, CT). All procedures performed on beagle dogs were in accordance with regulations and established guidelines and were reviewed and approved by an Institutional Animal Care and Use Committee through an ethical review process. Male Beagle dogs were purchased from Marshall Bioresources (North Rose, NY); subjects 3 years of age were used in pharmacokinetics studies. For each study (n=2), compounds were dosed iv by cephalic vein as a solution (0.5 mg/kg, 1 mL/kg) or via oral gavage as a suspension (3 mg/kg, 5 mL/kg). In the instances where oral (po) dose was administered in the fed state, dogs were fed a couple hours before dosing. In the instances where the IV dose was administered in the fasted state, dogs were fasted over night and fed 4 hours post dose. Subjects were monitored for pain or distress throughout the study followed by at least daily monitoring while off study. The iv dosing vehicle was optimized such that the compounds were in solution and stable for at least 24 h. Serial blood samples were collected via the jugular vein at predefined time points post-dose. […]
Monkey pharmacokinetic studies were conducted at Pfizer (Groton, CT). […] Subjects were monitored for pain or distress throughout the study followed by at least daily monitoring while off study. […]
Plasma samples were processed using protein precipitation with 50:50 acetonitrile: methanol containing terfenadine (5 ng/ml) as an internal standard followed by quantitation against a standard curve (0.1-1000 ng/ml) prepared in blank plasma. Quantitation of analyte in plasma samples was done using LC-MS/MS. […]

Choline Transporter = molecular target: T13, Choline Transporter (Homo sapiens, UniProt Q9GZV3); assay: CEREP transporters-binding
T13 construct: purchased Eurofins Cerep

CYP3A4 = CYP3A4 (Homo sapiens, UniProt P08684); assay: biochemical

Chain of hCoV-OC43_PLpro2 (P0C6X6 1631-1892): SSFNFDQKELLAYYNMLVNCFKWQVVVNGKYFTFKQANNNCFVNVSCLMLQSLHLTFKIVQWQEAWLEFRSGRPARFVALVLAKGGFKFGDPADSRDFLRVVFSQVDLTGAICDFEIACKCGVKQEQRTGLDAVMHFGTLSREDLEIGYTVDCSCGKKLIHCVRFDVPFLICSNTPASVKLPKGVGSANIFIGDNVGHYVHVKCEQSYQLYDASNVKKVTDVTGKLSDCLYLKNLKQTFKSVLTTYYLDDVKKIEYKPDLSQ
T10 sequence (P04150 whole entry): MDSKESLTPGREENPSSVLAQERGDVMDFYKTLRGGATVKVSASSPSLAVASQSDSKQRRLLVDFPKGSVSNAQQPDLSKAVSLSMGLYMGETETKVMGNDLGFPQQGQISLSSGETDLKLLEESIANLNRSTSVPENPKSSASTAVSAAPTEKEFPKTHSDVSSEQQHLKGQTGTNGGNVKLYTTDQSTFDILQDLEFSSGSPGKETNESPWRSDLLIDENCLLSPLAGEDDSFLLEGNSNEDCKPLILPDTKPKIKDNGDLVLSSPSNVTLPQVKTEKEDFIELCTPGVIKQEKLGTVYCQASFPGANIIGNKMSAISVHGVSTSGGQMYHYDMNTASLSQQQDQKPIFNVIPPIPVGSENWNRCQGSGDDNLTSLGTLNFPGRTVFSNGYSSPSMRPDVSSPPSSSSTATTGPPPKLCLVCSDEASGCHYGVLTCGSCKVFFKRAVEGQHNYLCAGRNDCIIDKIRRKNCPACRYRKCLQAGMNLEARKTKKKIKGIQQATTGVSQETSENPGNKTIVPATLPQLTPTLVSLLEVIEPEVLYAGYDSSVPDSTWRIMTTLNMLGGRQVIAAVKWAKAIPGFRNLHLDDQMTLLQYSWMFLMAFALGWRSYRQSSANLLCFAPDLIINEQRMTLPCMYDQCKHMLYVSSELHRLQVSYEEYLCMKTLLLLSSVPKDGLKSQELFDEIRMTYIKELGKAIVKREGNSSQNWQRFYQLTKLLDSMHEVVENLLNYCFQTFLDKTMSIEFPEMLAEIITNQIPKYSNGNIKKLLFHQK
T2 sequence (P29274 whole entry): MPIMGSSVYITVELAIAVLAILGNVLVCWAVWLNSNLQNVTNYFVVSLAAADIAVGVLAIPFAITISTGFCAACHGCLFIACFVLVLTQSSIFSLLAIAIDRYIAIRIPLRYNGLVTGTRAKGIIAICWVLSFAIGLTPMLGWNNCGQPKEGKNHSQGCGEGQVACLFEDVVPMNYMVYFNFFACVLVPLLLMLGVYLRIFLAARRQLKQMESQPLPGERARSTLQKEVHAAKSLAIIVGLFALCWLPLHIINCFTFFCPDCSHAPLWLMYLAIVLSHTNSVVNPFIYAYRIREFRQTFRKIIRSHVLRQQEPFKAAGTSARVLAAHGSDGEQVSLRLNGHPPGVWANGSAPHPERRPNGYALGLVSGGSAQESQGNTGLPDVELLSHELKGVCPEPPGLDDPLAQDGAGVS
T13 sequence (Q9GZV3 whole entry): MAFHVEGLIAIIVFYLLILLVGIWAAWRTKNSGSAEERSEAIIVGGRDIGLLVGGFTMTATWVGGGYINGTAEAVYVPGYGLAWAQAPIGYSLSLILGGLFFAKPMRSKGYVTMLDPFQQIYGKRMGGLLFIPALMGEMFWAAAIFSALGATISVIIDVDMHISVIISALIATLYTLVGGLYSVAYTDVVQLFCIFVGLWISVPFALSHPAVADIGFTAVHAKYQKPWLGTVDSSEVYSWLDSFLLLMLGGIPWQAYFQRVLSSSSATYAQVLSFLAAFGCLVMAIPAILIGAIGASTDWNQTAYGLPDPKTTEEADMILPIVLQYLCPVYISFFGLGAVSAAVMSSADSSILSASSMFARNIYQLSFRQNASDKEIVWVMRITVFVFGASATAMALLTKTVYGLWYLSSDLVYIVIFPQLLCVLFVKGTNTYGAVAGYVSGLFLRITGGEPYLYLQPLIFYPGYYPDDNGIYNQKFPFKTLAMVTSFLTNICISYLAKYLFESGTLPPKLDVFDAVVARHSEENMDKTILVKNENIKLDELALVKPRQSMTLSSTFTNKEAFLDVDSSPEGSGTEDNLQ
T9 sequence (P08246 30-267): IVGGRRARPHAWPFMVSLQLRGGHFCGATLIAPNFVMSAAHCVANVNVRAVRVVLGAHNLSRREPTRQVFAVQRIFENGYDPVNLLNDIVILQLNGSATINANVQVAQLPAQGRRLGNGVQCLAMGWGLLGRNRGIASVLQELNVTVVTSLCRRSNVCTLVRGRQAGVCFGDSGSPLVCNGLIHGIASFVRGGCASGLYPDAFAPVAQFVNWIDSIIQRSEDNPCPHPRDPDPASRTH
T3 sequence (P25774 115-331): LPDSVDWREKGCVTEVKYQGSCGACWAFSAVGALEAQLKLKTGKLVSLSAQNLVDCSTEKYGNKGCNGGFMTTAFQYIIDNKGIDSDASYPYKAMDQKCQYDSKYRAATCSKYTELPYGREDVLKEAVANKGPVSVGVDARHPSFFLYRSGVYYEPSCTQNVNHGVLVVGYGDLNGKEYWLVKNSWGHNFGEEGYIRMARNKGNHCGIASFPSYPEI
T4 sequence (O14965 whole entry): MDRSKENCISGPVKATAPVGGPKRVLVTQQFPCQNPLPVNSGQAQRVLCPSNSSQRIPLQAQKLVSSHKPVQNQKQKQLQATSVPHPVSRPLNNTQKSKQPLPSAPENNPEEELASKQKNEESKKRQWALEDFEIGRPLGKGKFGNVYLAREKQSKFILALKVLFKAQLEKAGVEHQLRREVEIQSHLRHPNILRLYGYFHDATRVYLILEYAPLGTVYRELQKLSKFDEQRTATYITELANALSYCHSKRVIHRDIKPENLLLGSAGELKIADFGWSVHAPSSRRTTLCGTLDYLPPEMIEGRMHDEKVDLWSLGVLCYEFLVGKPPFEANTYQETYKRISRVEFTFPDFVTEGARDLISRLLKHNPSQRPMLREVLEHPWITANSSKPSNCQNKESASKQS
T12 sequence (P22303 32-614): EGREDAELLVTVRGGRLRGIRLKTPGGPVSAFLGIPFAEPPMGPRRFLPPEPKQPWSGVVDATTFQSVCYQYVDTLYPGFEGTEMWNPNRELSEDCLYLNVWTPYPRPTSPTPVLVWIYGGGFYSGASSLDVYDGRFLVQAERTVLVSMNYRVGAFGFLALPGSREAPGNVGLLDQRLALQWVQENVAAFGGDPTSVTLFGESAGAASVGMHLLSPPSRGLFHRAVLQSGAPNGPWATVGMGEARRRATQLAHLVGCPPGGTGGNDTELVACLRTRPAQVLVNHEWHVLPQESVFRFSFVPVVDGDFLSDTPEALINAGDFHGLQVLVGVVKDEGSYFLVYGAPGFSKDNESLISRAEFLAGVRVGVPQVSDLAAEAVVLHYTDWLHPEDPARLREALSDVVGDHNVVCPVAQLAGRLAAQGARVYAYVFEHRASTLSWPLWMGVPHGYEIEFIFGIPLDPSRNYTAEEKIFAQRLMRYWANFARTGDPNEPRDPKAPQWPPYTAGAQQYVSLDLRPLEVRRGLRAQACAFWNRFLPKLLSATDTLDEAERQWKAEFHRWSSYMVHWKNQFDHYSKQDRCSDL
T6 sequence (P07339 65-412): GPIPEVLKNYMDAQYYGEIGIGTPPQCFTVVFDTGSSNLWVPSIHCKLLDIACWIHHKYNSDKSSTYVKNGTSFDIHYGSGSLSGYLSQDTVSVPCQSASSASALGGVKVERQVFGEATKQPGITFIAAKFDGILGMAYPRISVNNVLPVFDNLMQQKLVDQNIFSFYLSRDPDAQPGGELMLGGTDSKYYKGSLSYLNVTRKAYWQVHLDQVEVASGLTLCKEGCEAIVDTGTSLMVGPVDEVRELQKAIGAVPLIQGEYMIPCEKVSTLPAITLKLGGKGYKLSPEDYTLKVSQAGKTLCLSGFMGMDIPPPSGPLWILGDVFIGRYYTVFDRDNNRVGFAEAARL
T8 sequence (P10275 whole entry): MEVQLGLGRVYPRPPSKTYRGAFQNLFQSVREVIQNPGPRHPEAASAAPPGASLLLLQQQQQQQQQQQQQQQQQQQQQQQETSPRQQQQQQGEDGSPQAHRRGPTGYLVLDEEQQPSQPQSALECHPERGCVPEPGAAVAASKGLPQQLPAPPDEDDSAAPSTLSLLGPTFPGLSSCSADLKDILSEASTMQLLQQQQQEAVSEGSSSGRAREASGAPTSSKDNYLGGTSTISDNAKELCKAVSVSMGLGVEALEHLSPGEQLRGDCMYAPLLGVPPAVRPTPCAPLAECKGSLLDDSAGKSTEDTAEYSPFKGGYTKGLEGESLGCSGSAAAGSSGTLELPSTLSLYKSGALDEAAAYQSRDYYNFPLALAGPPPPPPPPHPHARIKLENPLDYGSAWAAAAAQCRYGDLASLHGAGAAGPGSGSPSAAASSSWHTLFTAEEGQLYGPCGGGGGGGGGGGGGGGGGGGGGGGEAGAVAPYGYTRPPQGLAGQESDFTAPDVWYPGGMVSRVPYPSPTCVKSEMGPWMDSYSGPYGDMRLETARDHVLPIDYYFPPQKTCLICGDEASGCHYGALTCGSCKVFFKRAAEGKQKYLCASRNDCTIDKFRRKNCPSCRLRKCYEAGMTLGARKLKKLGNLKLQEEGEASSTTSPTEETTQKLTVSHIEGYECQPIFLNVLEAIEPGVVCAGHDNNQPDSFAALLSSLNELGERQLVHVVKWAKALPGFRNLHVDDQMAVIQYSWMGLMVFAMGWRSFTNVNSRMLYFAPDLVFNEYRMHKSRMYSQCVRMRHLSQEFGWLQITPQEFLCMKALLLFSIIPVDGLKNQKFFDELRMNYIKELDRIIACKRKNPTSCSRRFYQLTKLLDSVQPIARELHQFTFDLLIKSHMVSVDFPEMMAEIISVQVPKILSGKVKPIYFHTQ
T7 sequence (Q9UBX1 271-484): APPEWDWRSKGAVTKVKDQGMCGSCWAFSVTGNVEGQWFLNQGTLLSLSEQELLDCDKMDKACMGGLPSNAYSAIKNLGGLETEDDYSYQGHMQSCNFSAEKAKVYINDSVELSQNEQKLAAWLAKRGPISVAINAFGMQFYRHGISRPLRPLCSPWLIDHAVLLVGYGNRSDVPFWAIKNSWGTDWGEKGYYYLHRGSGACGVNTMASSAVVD

Cc1ccc(N2CCN(C)CC2)cc1C(=O)NC1(c2cc(-c3cnn(C)c3)nc3ccccc23)CC1 [Compound 4]
inhibition at 30 µM (Serotonin 3): -10% | % response (Adenosine A2a): 0% | IC50 (Human Cathepsin S): > 100 µM | inhibition at 30 µM (Aurora A Kinase): -1% | inhibition at 30 µM (Lck Kinase): -1% | IC50 (Human Cathepsin D): > 100 µM | % inhibition [1]: 7% | IC50 (Human Cathepsin F): > 100 µM | CC50 (in vitro [2]): 69.3 µM | fraction unbound (in vitro [3]): 0.101 | fraction unbound ([4]; bovine, cell culture medium (2% HI-FBS in DMEM), media: 2% HI-FBS in DMEM, n = 4, read-out: Fu (CV)): 0.749 | fraction unbound ([4]; dNHBE medium, read-out: fraction unbound in the dNHBE medium): 0.916 | Ki (hCoV-OC43_PLpro2): > 10 µM | activity on OC43 PL^pro (hCoV-OC43_PLpro2): nearly inactive | inhibition at 30 µM [5]: -10% | IC50 (Human Elastase): > 100 µM | inhibition at 30 µM [6]: 2% | IC50 (Human Thrombin): > 100 µM | inhibition at 30 µM (Acetylcholinesterase): 17% | % inhibition (Monoamine Oxidase): 16% | % inhibition (NMDA Receptor (PCP site)): 14% | AUC(0-inf) (Monkey pharmacokinetics): 1600 ng·h/mL | half-life (Monkey pharmacokinetics): 3.56 h | clearance (Monkey pharmacokinetics; read-out: CLp): 10.7 mL/min/kg | Vd (Monkey pharmacokinetics; read-out: Vdss): 2.09 L/kg | inhibition at 30 µM (Choline Transporter): 25% | IC50 (CYP3A4): > 30 µM
